# Results: patent US12240846B2 (Enliven Inc., priority 2020, dated 2025)
# Experiments:
# HL60 cells = test: HL60 cell proliferation assay (CellTiter-Glo); format: cell-based; conditions: Homo sapiens, HL-60, HL60 cell viability, 72 hours, read-out: Cell Line (IC50, nM) HL60
# Experimental: (§1) K562 and HL60 Cell Proliferation Assay
# (§2) K562 and HL60 cells, cultured in Iscove's Modified Dulbecco's Media (IMDM) supplemented with 10% FBS, were harvested at 50-80% confluency and plated at 2,000 cells per well (K562) or 1,500 cells per well (HL60) in 384-well tissue culture plates. A subset of wells contained media only (low control, LC). […] The plates were placed in a 37° C. incubator with 5% CO2 for 72 hours. Cell viability was measured using a CellTiter-Glo luminescent cell viability assay (Promega), which allows for relative quantification of metabolically active cells by luminescence-based measurements of intracellular ATP concentrations. Briefly, plates were removed from the incubator and equilibrated for 15 minutes at room temperature prior to the addition of 40 μL of CellTiter-Glo reagent. Plates were then incubated for 30 minutes at room temperature. Luminescence was measured using an EnSpire plate reader (Perkin Elmer). As noted above, luminescence values from wells with DMSO only or media without cells were used as high and low controls (HC and LC), respectively. Normalized percent viability was calculated as follows: percent viability=100×(Lumsample−LumLC)/(LumHC−LumLC).
# ABL1 = molecular target: T1, ABL1 (Homo sapiens, UniProt P00519); test: Luminescence-based ABL kinase assay (300 μM ATP), ADP-Glo; format: biochemical
# T1 construct: purchased Carna Biosciences
# Source text: Compounds were serially diluted in DMSO. […] Luminescence signal positively correlates with kinase activity.
# ABL1 (T315I) = ABL1 (T315I) (Homo sapiens, UniProt P00519, T315I); test: as above; format: biochemical
# K562 cells = test: K562 cell proliferation assay (CellTiter-Glo); format: cell-based; conditions: Homo sapiens, K562 cell viability, 72 hours, read-out: Cell Line (IC50, nM) K562
# Experimental: as §1, §2
Structure (SMILES),IC50 (HL60 cells),IC50 (ABL1),IC50 (ABL1 (T315I)),IC50 (K562 cells)
"COc1ncc(F)c(OC)c1-c1cc2cc(NC(=O)NCCN3CCNCC3)ncc2n1C [Compound 82, 3-[2-(5-fluoro-2,4-dimethoxypyridin-3-yl)-1-methylpyrrolo[2,3-c]pyridin-5-yl]-1-[2-(piperazin-1-yl)ethyl]urea formic acid]",> 10000 nM,31.6 nM,88.1 nM,125 nM
"COc1ccccc1-c1cc2cc(NC(=O)C3CC3)ncc2n1C [Compound 2, N-(2-(2-methoxyphenyl)-1-methyl-1H-pyrrolo[2,3-c]pyridin-5-yl)cyclopropanecarboxamide]",202 nM,25.4 nM,17.7 nM,109 nM
"COc1ccccc1-c1cc2cc(NC(=O)[C@@H]3C[C@H]3CN(C)C)ncc2n1C (single isomer, unassigned) [Compound 132]",,59.4 nM,75.1 nM,165 nM
"COc1ncc(Cl)cc1-c1cc2cc(NC(=O)[C@@H]3C[C@@H]3F)ncc2n1C [Compound 66, (1S,2S)-N-[2-(5-chloro-2-methoxypyridin-3-yl)-1-methylpyrrolo[2,3-c]pyridin-5-yl]-2-fluorocyclopropane-1-carboxamide]",1750 nM,25.4 nM,68 nM,100 nM
"Cc1ccc(F)cc1-c1cc2cc(NC(=O)C3CC3)ncc2n1C [Compound 12, N-[2-(5-fluoro-2-methylphenyl)-1-methylpyrrolo[2,3-c]pyridin-5-yl]cyclopropanecarboxamide]",4220 nM,,,317 nM
"COc1ncccc1-c1c(C)c2cc(NC(=O)[C@@H]3C[C@@H]3F)ncc2n1C [Compound 61, (1S,2S)-2-fluoro-N-(2-(2-methoxypyridin-3-yl)-1,3-dimethyl-1H-pyrrolo[2,3-c]pyridin-5-yl)cyclopropanecarboxamide]",4860 nM,207 nM,308 nM,576 nM
"COc1ncc(F)c(OC)c1-c1cc2cc(NC(=O)[C@@H]3C[C@H]3CN(C)C)ncc2n1C (single isomer, unassigned) [Compound 130]",> 10000 nM,37.3 nM,58.1 nM,108 nM
"COc1nc(C)ncc1-c1cc2cc(NC(=O)[C@@H]3C[C@@H]3F)ncc2n1C [Compound 141, (1S,2S)-2-fluoro-N-[2-(4-methoxy-2-methylpyrimidin-5-yl)-1-methylpyrrolo[2,3-c]pyridin-5-yl]cyclopropane-1-carboxamide]",> 10000 nM,316 nM,1990 nM,381 nM
"COc1ccnc(OC)c1-c1cc2cc(NC(=O)[C@H]3C[C@@H]3CN3C4CCC3CNC4)ncc2n1C (relative stereo) [Compound 147, Trans-2-((3,8-diazabicyclo[3.2.1]octan-8-yl)methyl)-N-(2-(2,4-dimethoxypyridin-3-yl)-1-methyl-1H-pyrrolo[2,3-c]pyridin-5-yl)cyclopropane-1-carboxamide]",,24.4 nM,41.8 nM,152 nM
"COc1cc2[nH]ncc2cc1-c1cc2cc(NC(=O)[C@@H]3C[C@@H]3F)ncc2n1C [Compound 74, (1S,2S)-2-fluoro-N-[2-(6-methoxy-1H-indazol-5-yl)-1-methylpyrrolo[2,3-c]pyridin-5-yl]cyclopropane-1-carboxamide]",59.6 nM,19.6 nM,30.2 nM,44.7 nM
"Cc1cc(O)ccc1-c1cc2cc(NC(=O)C3CC3)ncc2n1C [Compound 8, N-[2-(4-hydroxy-2-methylphenyl)-1-methylpyrrolo[2,3-c]pyridin-5-yl]cyclopropanecarboxamide]",59.1 nM,,,95.6 nM
"COc1ccccc1-c1c(C)c2cc(NC(=O)[C@H]3C[C@H]3F)ncc2n1C [Compound 44, (1R,2R)-2-fluoro-N-[2-(2-methoxyphenyl)-1,3-dimethylpyrrolo[2,3-c]pyridin-5-yl]cyclopropane-1-carboxamide]",> 10000 nM,74.5 nM,36 nM,368 nM
"COc1ncccc1-c1cc2cc(NC(=O)[C@H]3C[C@H]3F)ncc2n1C [Compound 34, (1R,2R)-2-fluoro-N-[2-(2-methoxypyridin-3-yl)-1-methylpyrrolo[2,3-c]pyridin-5-yl]cyclopropane-1-carboxamide]",3840 nM,40.8 nM,124 nM,208 nM
"COc1ncccc1-c1c(C)c2cnc(NC(=O)[C@@H]3C[C@@H]3F)cc2n1C [Compound 56, (1S,2S)-2-fluoro-N-[2-(2-methoxypyridin-3-yl)-1,3-dimethylpyrrolo[3,2-c]pyridin-6-yl]cyclopropane-1-carboxamide]",6200 nM,198 nM,141 nM,240 nM
"COc1ncnc(OC)c1-c1cc2cc(NC(=O)[C@@H]3CC3(F)F)ncc2n1C [Compound 136, (1S)-N-[2-(4,6-dimethoxypyrimidin-5-yl)-1-methylpyrrolo[2,3-c]pyridin-5-yl]-2,2-difluorocyclopropane-1-carboxamide]",1200 nM,,,98.8 nM
"COc1cccc(OC)c1-c1cc2cc(NC(=O)[C@H]3C[C@@H]3CN(C)C)ncc2n1C [Compound 135, (J S,2S)-N-(2-(2,6-dimethoxyphenyl)-1-methyl-1H-pyrrolo[2,3-c]pyridin-5-yl)-2-((dimethylamino)methyl)cyclopropane-1-carboxamide]",,,,27.9 nM
"Cn1c(-c2cc(F)cnc2OC2CC2)cc2cc(NC(=O)[C@@H]3C[C@@H]3F)ncc21 [Compound 140, (1S,2S)-N-[2-(2-cyclopropoxy-5-fluoropyridin-3-yl)-1-methylpyrrolo[2,3-c]pyridin-5-yl]-2-fluorocyclopropane-1-carboxamide]",> 10000 nM,95.8 nM,,291 nM
"[2H]C([2H])([2H])Oc1ncnc(OC([2H])([2H])[2H])c1-c1cc2cc(NC(=O)[C@@H]3C[C@@H]3F)ncc2[nH]1 [Compound 144, (1S,2S)-N-(2-(4,6-bis(methoxy-d3)pyrimidin-5-yl)-1H-pyrrolo[2,3-c]pyridin-5-yl)-2-fluorocyclopropane-1-carboxamide]",> 10000 nM,,,1070 nM
"COc1ncccc1-c1cc2cc(NC(=O)C3CC3)ncc2n1C [Compound 22, N-[2-(2-methoxypyridin-3-yl)-1-methylpyrrolo[2,3-c]pyridin-5-yl]cyclopropanecarboxamide]",958 nM,,,179 nM
"CCOc1ccccc1-c1cc2cc(NC(=O)C3CC3)ncc2n1C [Compound 3, N-[2-(2-ethoxyphenyl)-1-methylpyrrolo[2,3-c]pyridin-5-yl]cyclopropanecarboxamide]",209 nM,,,127 nM
"COc1nc(C)c(F)c(OC)c1-c1cc2cc(NC(=O)[C@@H]3C[C@@H]3F)ncc2n1C [Compound 101, (1S,2S)-2-fluoro-N-[2-(5-fluoro-2,4-dimethoxy-6-methylpyridin-3-yl)-1-methylpyrrolo[2,3-c]pyridin-5-yl]cyclopropane-1-carboxamide]",,153 nM,2330 nM,456 nM
"COc1cccc(OC)c1-c1cc2cc(NC(=O)[C@@H]3C[C@H]3CN(C)C)ncc2n1C [Compound 134, (1R,2R)-N-(2-(2,6-dimethoxyphenyl)-1-methyl-1H-pyrrolo[2,3-c]pyridin-5-yl)-2-((dimethylamino)methyl)cyclopropane-1-carboxamide]",,,,53.1 nM
"COc1ccccc1-c1cc2cc(NC(=O)[C@H]3C[C@@H]3CN(C)C)ncc2n1C (single isomer, unassigned) [Compound 133]",,73.5 nM,85.9 nM,181 nM
"COc1nc(C2CC2)nc(OC)c1-c1cc2cc(NC(=O)[C@@H]3C[C@@H]3F)ncc2n1C [Compound 100, (1S,2S)-N-(2-(2-cyclopropyl-4,6-dimethoxypyrimidin-5-yl)-1-methyl-1H-pyrrolo[2,3-c]pyridin-5-yl)-2-fluorocyclopropane-1-carboxamide]",,49.2 nM,233 nM,66.2 nM
"COc1ncnc(OC)c1-c1cc2cc(NC(=O)[C@H]3CC3(F)F)ncc2n1C [Compound 137, (1R)-N-[2-(4,6-dimethoxypyrimidin-5-yl)-1-methylpyrrolo[2,3-c]pyridin-5-yl]-2,2-difluorocyclopropane-1-carboxamide]",148 nM,,,37 nM
"[2H]C([2H])([2H])Oc1ncnc(OC([2H])([2H])[2H])c1-c1cc2cc(NC(=O)[C@@H]3C[C@@H]3F)ncc2n1C([2H])([2H])[2H] [Compound 111, (1S,2S)-N-(2-(4,6-bis(methoxy-d3)pyrimidin-5-yl)-1-(methyl-d3)-1H-pyrrolo[2,3-c]pyridin-5-yl)-2-fluorocyclopropane-1-carboxamide]",,,,23 nM
"COc1nc(N(C)C)nc(OC)c1-c1cc2cc(NC(=O)[C@@H]3C[C@@H]3F)ncc2n1C [Compound 104, (1S,2S)-N-(2-(2-(dimethylamino)-4,6-dimethoxypyrimidin-5-yl)-1-methyl-1H-pyrrolo[2,3-c]pyridin-5-yl)-2-fluorocyclopropane-1-carboxamide]",240 nM,,,
